Assays:
Format in all cases: in vivo
[1] = system: Musca domestica (houseflies - adults); assay: Contact test on houseflies - adults (MD), Cotton wool/sugar, mortality; settings: 72 h, 500 ppm, contact, 3 days, read-out: MD grading of mortality
Summary of the method: (§1)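 Pests were supported on a host plant or food medium, and either or both were treated with preparations at 500, 250 or 100 ppm by weight. Mortality was assessed one to three days afterwards and banded into three grades, from A (80-100%) down to C (under 50%).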

[2] = system: Tetranychus urticae (spider mites - adult); assay: Contact test on spider mites - adult (TUa), French bean leaf, mortality; settings: 72 h, 500 ppm, contact, 3 days, read-out: TUa grading of mortality
Summary of the method: as §1

[3] = system: Blattella germanica (cockroach nymphs); assay: Contact test on cockroach nymphs (BG/C), Plastic pot, mortality; settings: 48 h, 500 ppm, contact, 2 days, read-out: BG/C grading of mortality
Summary of the method: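 Cockroach nymphs and/or their medium were treated with aqueous preparations at 500, 250 or 100 ppm (acetone solution diluted in water with 0.01% Lissapol NX wetting agent). Mortality or knockdown was assessed typically 1–3 days later and graded A (80–100%), B (50–79%) or C (<50%).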

[4] = system: Musca domestica (houseflies - adults); assay: Knockdown test on houseflies - adults (MD/KD), Cotton wool/sugar; settings: 500 ppm, 4 hours, read-out: MD/KD grading of knockdown
Summary of the method: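 Adult houseflies exposed to the compound at 500, 250 or 100 ppm in acetone/water with 0.01% wetting agent, on a cotton wool/sugar medium. Knockdown and mortality assessed, graded A (80-100%), B (50-79%) or C (<50%).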

Myzus persicae (aphids) = assay: Contact test on aphids (MP), Chinese Cabbage leaf, mortality; settings: 72 h, 500 ppm, contact, 3 days, read-out: MP grading of mortality
Summary of the method: as §1

[5] = system: Tetranychus urticae (spider mites - ova); assay: Contact test on spider mites - ova (TUe), French bean leaf, mortality; settings: 144 h, 500 ppm, contact, 6 days, read-out: TUe grading of mortality
Summary of the method: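 Graded read-out: A 80-100%, B 50-79%, C below 50% mortality or knockdown, assessed usually 1-3 days post-treatment. Liquid preparations at 500, 250 or 100 ppm by weight, from acetone solution diluted in water with 0.01% wetting agent, applied to pests and/or their host plant or food medium.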

[6] = system: Nephotettix cincticeps (green leaf hopper - nymphs); assay: Contact test on green leaf hopper nymphs (NC), Rice plant, mortality; settings: 48 h, 500 ppm, contact, 2 days, read-out: NC grading of mortality
Summary of the method: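 Product dissolved in acetone, diluted in water with 0.01% wetting agent to 500, 250 or 100 ppm; nymphs and/or host rice plants treated. Mortality or knockdown assessed 1–3 days later, graded A (80-100%), B (50-79%), C (<50%).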

[7] = system: Diabrotica balteata (rootworm larvae); assay: Residual test on rootworm larvae (DB), Filter paper/maize seed, mortality; settings: 48 h, 500 ppm, residual, 2 days, read-out: DB grading of mortality
Summary of the method: as §1

[8] = system: Spodoptera exigua (lesser army worm - larvae); assay: Residual test on lesser army worm larvae (SP), Cotton leaf, mortality; settings: 48 h, 500 ppm, residual, 2 days, read-out: SP grading of mortality
Summary of the method: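 Product dissolved in acetone and diluted in water with 0.01% wetting agent to 500, 250 or 100 ppm; larvae and/or cotton leaf host treated. Mortality or knockdown scored one to three days later and graded A (80-100%), B (50-79%) or C (<50%).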

[9] = system: Heliothis virescens (tobacco budworm - larvae); assay: Residual test on tobacco budworm larvae (HV), Cotton leaf, mortality; settings: 48 h, read-out: HV grading of mortality
Summary of the method: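 Product in acetone diluted with water containing 0.01% Lissapol NX, at 500, 250 or 100 ppm; pests and/or host medium (here cotton leaf) treated. Mortality scored one to three days later, graded A (80-100%), B (50-79%), C (<50%).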

SMILES	mortality at 500 ppm [1]	mortality at 500 ppm [2]	mortality at 500 ppm [3]	pest or weed control at 500 ppm [4]	mortality at 500 ppm (Myzus persicae (aphids))	mortality at 500 ppm [5]	mortality at 500 ppm [6]	mortality at 500 ppm [7]	mortality at 500 ppm [8]	mortality at 500 ppm [9]
CCOc1c(F)c(COc2ccccc2)c(F)c(F)c1COC(=O)C(c1cnc(C(C)(C)C)nc1)C(C)(C)C (racemic) [Compound 194, 2,3,5-trifluoro-6-ethoxy-4-(phenoxymethyl)benzyl (RS)-2-[2-(1,1-dimethylethyl)pyrimidin-5-yl]-3,3-dimethylbutanoate]	< 50%	80 to 100%	< 50%	< 50%	< 50%	< 50%	< 50%	< 50%	80 to 100%	< 50%
COCc1c(F)c(F)c(CSC(=O)C(c2cnc(C(C)(C)C)nc2)C(C)(C)C)c(F)c1F (racemic) [Compound 195, 4-(methoxymethyl)-2,3,5,6-tetrafluorobenzyl (RS)-2-[2-(1,1-dimethylethyl)pyrimidin-5-yl]-3,3-dimethylbutanthioate]	< 50%	80 to 100%	< 50%	< 50%	80 to 100%	80 to 100%	80 to 100%	80 to 100%	80 to 100%	80 to 100%
CC(C)(C)c1ncc(C(C(=O)SCc2c(F)c(F)c(CO)c(F)c2F)C(C)(C)C)cn1 (racemic) [Compound 196]	< 50%	< 50%	< 50%	< 50%	< 50%	< 50%	< 50%	< 50%	80 to 100%	< 50%
CC(C)c1ncc(C(C(=O)OCc2ccc(F)c(Oc3ccccc3)c2)C(C)(C)C)cn1 (racemic) [Compound 197, 4-fluoro-3-phenoxybenzyl (RS)-2-[2-(1-methylethyl)pyrimidin-5-yl]-3,3-dimethylbutanoate]	< 50%	80 to 100%	< 50%	80 to 100%	80 to 100%	80 to 100%	80 to 100%	80 to 100%	80 to 100%	80 to 100%
C[C@@H](OC(=O)[C@@H](c1cnc(N(C)C)nc1)C(C)(C)C)c1cccc(Oc2ccccc2)n1 (racemic) [Compound 198, (RS)-1-(6-phenoxypyrid-2-yl)ethyl (RS)-2-[2-(N,N-dimethylamino)pyrimidin-5-yl]-3,3-dimethylbutanoate]	< 50%	80 to 100%	80 to 100%	80 to 100%	80 to 100%	< 50%	80 to 100%	80 to 100%	80 to 100%	80 to 100%
COCc1c(F)c(F)c(COC(=O)C(c2cnc(N(C)C)nc2)C(C)(C)C)c(F)c1F (racemic) [Compound 199]	80 to 100%	80 to 100%	80 to 100%	80 to 100%	80 to 100%	80 to 100%	80 to 100%	50 to 79%	80 to 100%	80 to 100%
CN(C)c1ncc(C(C(=O)OCc2ccc(F)c(Oc3ccccc3)c2)C(C)(C)C)cn1 (racemic) [Compound 200, 4-fluoro-3-phenoxybenzyl (RS)-2-[2-(N,N-dimethylamino)pyrimidin-5-yl]-3,3-dimethylbutanoate]	< 50%	80 to 100%	< 50%	80 to 100%	80 to 100%	< 50%	80 to 100%	< 50%	80 to 100%	80 to 100%
CC(C)(C)C(C(=O)OCc1ccc(F)c(Oc2ccccc2)c1)c1cnc(C2CC2)nc1 (racemic) [Compound 201, 4-fluoro-3-phenoxybenzyl (RS)-2-(2-cyclopropylpyrimidin-5-yl)-3,3-dimethylbutanoate]	80 to 100%	80 to 100%	50 to 79%	80 to 100%	80 to 100%	50 to 79%	80 to 100%	80 to 100%	80 to 100%	80 to 100%
C=C(C)C(C(=O)OCc1c(F)c(F)c(COC)c(F)c1F)c1cnc(C(C)(C)C)nc1 (racemic) [Compound 202, 2,3,5,6-tetrafluoro-4-(methoxymethyl)benzyl (RS)-2-[2-(1,1-dimethylethyl)pyrimidin-5-yl]-3-methylbut-3-enoate]	< 50%	80 to 100%	< 50%	80 to 100%	80 to 100%	< 50%	80 to 100%	< 50%	80 to 100%	50 to 79%
C[C@@H](OC(=O)[C@@H](c1cnc(C2(C)CC2)nc1)C(C)(C)C)c1cccc(Oc2ccccc2)n1 (racemic) [Compound 203, (RS)-1-(6-phenoxypyrid-2-yl)ethyl (RS)-2-[2-(1-methylcyclopropyl)pyrimidin-5-yl]-3,3-dimethylbutanoate]	80 to 100%	80 to 100%	50 to 79%	80 to 100%	80 to 100%	50 to 79%	80 to 100%	< 50%	80 to 100%	80 to 100%
CC1(c2ncc(C(C(=O)OCc3ccc(F)c(Oc4ccccc4)c3)C(C)(C)C)cn2)CC1 (racemic) [Compound 204, 4-fluoro-3-phenoxybenzyl (RS)-2-[2-(1-methylcyclopropyl)pyrimidin-5-yl]-3,3-dimethylbutanoate]	80 to 100%	80 to 100%	50 to 79%	80 to 100%	80 to 100%	< 50%	80 to 100%	< 50%	80 to 100%	80 to 100%
Cc1ncc(C(C(=O)OC(C)c2cccc(Oc3ccccc3)n2)C(C)(C)C)cn1 (racemic) [Compound 205, RS-1-(6-phenoxypyrid-2-yl)ethyl (RS)-2-(2-methylpyrimidin-5-yl)-3,3-dimethylbutanoate]	< 50%	80 to 100%	< 50%	< 50%	80 to 100%	< 50%	80 to 100%	< 50%	80 to 100%	80 to 100%
Cc1ncc(C(C(=O)OCc2ccc(F)c(Oc3ccccc3)c2)C(C)(C)C)cn1 (racemic) [Compound 206, 4-fluoro-3-phenoxybenzyl (RS)-2-(2-methylpyrimidin-5-yl)-3,3,-dimethylbutanoate]	80 to 100%	80 to 100%	50 to 79%	80 to 100%	80 to 100%	< 50%	80 to 100%	80 to 100%	80 to 100%	80 to 100%

Source: patent US4962109A, “Insecticidally and acaricidally active pyrimidine esters and intermediates therefor” (Imperial Chemical Industries PLC, priority 1985, dated 1990)
